As usually defined, the IC50 is the concentration needed to halve the response being measured. A low value points to greater potency.

This is an account of results in patent publication US20230026869A1, “CRYSTAL FORM OF NUCLEOPROTEIN INHIBITOR AND USE THEREOF” (CHIA TAI TIANQING PHARMACEUTICAL GROUP CO., LTD., priority 2019, published 2023).

The target in one data set is T1, CYP1A2 (Homo sapiens, UniProt P05177).
T1 construct: from tissue; host or cells: human liver microsomes
T1 sequence (P05177 1-516): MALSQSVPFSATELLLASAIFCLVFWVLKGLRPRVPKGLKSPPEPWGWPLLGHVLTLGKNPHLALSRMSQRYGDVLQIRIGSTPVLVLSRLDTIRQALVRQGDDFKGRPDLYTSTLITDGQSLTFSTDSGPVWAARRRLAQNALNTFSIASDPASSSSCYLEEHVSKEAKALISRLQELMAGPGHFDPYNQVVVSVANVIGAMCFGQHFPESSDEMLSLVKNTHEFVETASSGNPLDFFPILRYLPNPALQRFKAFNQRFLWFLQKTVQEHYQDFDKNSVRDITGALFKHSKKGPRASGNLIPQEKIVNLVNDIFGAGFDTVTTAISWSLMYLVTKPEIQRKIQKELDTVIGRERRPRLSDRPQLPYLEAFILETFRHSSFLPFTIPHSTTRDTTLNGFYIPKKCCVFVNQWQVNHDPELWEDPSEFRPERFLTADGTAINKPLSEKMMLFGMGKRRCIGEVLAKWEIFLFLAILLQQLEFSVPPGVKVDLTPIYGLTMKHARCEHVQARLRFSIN
Nature of the data set: Inhibition of human liver microsomal cytochrome P450 isoenzyme CYP1A2. Format: in vitro ADME. The note with it: human liver microsomes. As to the method:
Objective: The inhibitory effect of the test compound on the activity of human liver microsomal cytochrome P450 isoenzymes (CYP1A2, CYP2C9, CYP2C19, CYP2D6 and CYP3A4) was determined. […]
On the technique in general: Liver microsomes are a subcellular fraction often used to study metabolism.

Data set [1] is described as follows: Experiment on cytotoxicity (CellTiter-Glo, 3 days). Format: cell-based. Particulars: 3 days incubation, read-out: 50% cytotoxic concentration (CC50). The procedure:
• 1. The compound was diluted with DMSO (dimethyl sulfoxide) in a 3-fold gradient for 9 concentrations, and added into a 96-well plate in duplicate. The compound concentration was 200-fold of the final test concentration. • 2. The cells were rinsed with PBS (phosphate buffered saline) once, added with 0.25% trypsin and digested for about 2-5 min in a 37° C., 5% CO2 incubator. Then the digestion was terminated with a cell culture medium and the cells were dispersed into single cells by pipetting with a pipettor. • 3. The cell density was counted with a cell counter, and adjusted to the required density with the medium. • 4. The cells were added into a 96-well plate that had been added with the compound. The final concentration of DMSO in each well was 0.5%. Wells containing 0.5% DMSO were used as non-toxic negative controls, and wells containing the cell culture medium were used as 100% cytotoxicity controls. Then the cell plate was incubated in a 37° C., 5% CO2 cell incubator for 3 days. • 5. The chemiluminescence signal (RLU, relative chemiluminescence unit) of each well in the cell plate was detected with the cell viability detection kit CellTiter-Glo using the multi-functional microplate reader Envision, with instructions on the kit followed. • 6. The raw data (RLU) were substituted into the following formula to calculate the cell viability of each well (cell viability %): […]
A general note: In ATP-based viability assays light output follows the ATP content of the culture.

At CYP1A2, `CC1(NC(=O)C(=O)c2c(Cl)c(C(=O)Nc3cc(F)c(F)c(F)c3)c3n2CCC3)CCC(CC(=O)O)CC1` (centres unmarked) [Compound of formula (I)] gave an IC50 greater than 50 µM. In data set [1], the CC50 at 3 days was greater than 50 µM.
